Measured values published in EP1945226B1, “DRUG COMBINATION WITH ANALGESIC, ANTI-INFLAMMATORY AND DECONGESTIVE ACTIVITY” (Voicu, A. Victor, priority 2005, dated 2006).

Tested on: edema induced by carrageenan
Assay: experimental inflammation model with carrageenan at the rats' posterior paws
Format: in vivo, Wistar rats
Details: rat, administered independently
Protocol: The anti-inflammatory effect was found via the experimental inflammation model with carrageenan at the rats' posterior paws. For the experimental research, we used Wistar rats with 120±10g weight, in groups of 9 animals.
1% carrageenan saline solution was administered by subcutaneous injection (0.1 mL volume) In the posterior paw.
The anti-inflammatory combination was administered 1 hour before carrageenan. The posterior paws' dimensions were measured before and 3 hours after carrageenan solution injection. The contra lateral paw was used as reference. The following combination was used for the experiments:
This (combination, formulated as) suspension was administered orally (gavage), in dosage of 0.2 mL/100 g rat body weight.
Acetylsalicylic acid was administered independently, in doses of 250 mg/kg body weight, equivalent to the quantity used in the combination. Chlorpheniramine was also (independently) administered by oral route, as reference, in doses equivalent to 6 mg/kg body weight.

SMILES	anti-inflammatory effect (oral route, 6 mg/kg body weight)	anti-inflammatory effect (reduces pow edema), mean value (250 mg/kg body weight)
CN(C)CCC(c1ccc(Cl)cc1)c1ccccn1 (centres unmarked) [chlorpheniramine]	no anti-inflammatory effect	
CC(=O)Oc1ccccc1C(=O)O [acetylsalicylic acid]		approximately 22%
